Data published in patent US12673039B2, “Methods of inducing autophagy using coumarin derivatives and related compounds” (Buck Institute for Research on Aging, priority 2019, dated 2026).

Experiments:
HLH-30 = HLH-30 expression and activity in C. elegans (GFP reporter, immunoblot, qRT-PCR); format: in vivo; conditions: for HLH-30:GFP protein by immunoblot: MAH235 young adult worms
Description: FIG. 9A-9B illustrates that coumarin 106 (“C1”. “AIC106”) induces TFEB (HLH-30) signaling in C. elegans. FIG. 9A) Nuclear TFEB homologue HLH-30 levels in HLH-30 GFP tagged worms grown from day 1 at 20° C. as a measure of TFEB activation. Values are reported as average GFP intensity visualized at a young adult stage, day-5; **p<0.0002 versus control. FIG. 9B) TFEB mRNA levels by qPCR following 24 hrs of C1 treatment (10 μM 20 μM) in worms+/−HLH30 RNAi. Values represent RNA levels versus DMSO-only control RNAi; *p<0.001 versus control RNAi.
FIG. 18, panels A-F: AIC106 (Autophagy Inducing Coumarin-106) induces transcription of TFEB and its targets in vitro in rat N27 neuronal cells and in vivo in C. elegans. Panel A) Relative fold change in TFEB promoter activity compared to DMSO-control was determined by quantifying luciferase activity in supernatants collected from rat N27 neuronal cells post-24 hour treatment with C1 (AIC106), D1 and D2. [n=3 independent experiments (mean±SEM), **p<0.01, by one-way ANOVA with Dunnett's multiple comparisons test]. Panel B) Chemical structure of AIC106 and its structural derivative D1 and D2. Panel C) Relative fold change in mRNA of tfeb and its targets compared to DMSO-control were quantified using qRT-PCR in N27 neuronal cells post-24 hour treatment with AIC106 [N=3 independent experiments (mean±SD). *p<0.05, **p<0.01 and ****p<0.0001, by two-way ANOVA with Sidak's multiple comparisons test]. Panel D) Changes in HLH-30 expression were measured by quantifying GFP intensity in an individual GFP-tagged HLH-30 strain (MAH235) post-24 hours treatment with AIC106 and DMSO-control. [N=3 independent experiments (mean±SD). ****p<0.0001, by unpaired t-test]. Panel E) HLH-30; GFP (MAH235) were monitored by fluorescence microscopy. Panel F) Relative fold change in mRNA of hlh-30 and its targets compared to DMSO-control were quantified using qRT-PCR in young adult wild type N2 worms post-24 hours treatment with AIC106. [N=3 independent experiments (mean±SD). *p<0.05, **p<0.01 and ***p<0.001, by two-way ANOVA with Sidak's multiple comparisons test].
FIG. 22, panels A-H: AIC106-induced HLH-30 expression is mediated by the nuclear hormone receptor DAF-12. Panel A) The upstream promoter region (2 kB) of hlh-30 was analyzed by JASPAR CORE database to determine DAF-12 binding sites (1: SEQ ID NO:1, 2: 1: SEQ ID NO:2, 3: SEQ ID NO:3, 4: SEQ ID NO:4, 5: SEQ ID NO:5, 6: SEQ ID NO:6, 7: SEQ ID NO:7, 8: SEQ ID NO:8, 9: SEQ ID NO:9, 10: SEQ ID NO:10, 11: SEQ ID NO:11, 12: SEQ ID NO:12). Panel B) Relative fold change in mRNA of hlh-30 compared to DMSO-control was quantified using qRT-PCR in young adult wild-type N2 and daf-12(rh61rh411) worms post-24 hours treatment with AIC106. [N=3 independent experiments (mean±SD). **p<0.01, by one-way ANOVA with Sidak's multiple comparisons test]. Panel C) Effects of AIC106 on DAF-12 activity was determined in a mammalian one-hybrid assay by quantifying changes in the luciferase activity of DAF-12 ligand (dafachronic acid, DA) induced treatment. [N=3 independent experiments (mean±SD). *p<0.05 **p<0.01 and ***p<0.001, by one-way ANOVA with Tukey's multiple comparisons test]. Panel D) Schematic diagram showing that addition of AIC106 or inhibition of DAF-12 ligand synthesis, which leads to un-liganded DAF-12 may result in enhanced HLH-30 expression. Panel E) Dafadine-A (DFA), a specific inhibitor of key enzyme required for synthesis of DAF-12 ligand induces HLH-30 expression. Immunoblot for GFP was performed on protein lysate of HLH-30; GFP (MAH235) young adult worms treated with DFA or DMSO-control for 24 hours. Panel F) Protection against mitochondrial toxin (FCCP) was determined by quantifying survival of young adult worms treated 24 hours with DFA or DMSO-control. [N=3 independent experiments (mean±SD). **p<0.01, by two-way ANOVA with Tukey's multiple comparisons test]. […]

C. elegans = test: FCCP mitochondrial toxin stress assay in C. elegans; format: in vivo; conditions: for resistance to mitochondrial toxin FCCP (survival): wild type worms, 24 hours treatment
Description: FIG. 20, panels A-H: AIC106 treatment improves mitochondrial health. Panel A) Changes in mitochondrial membrane potential were determined by quantifying fluorescence intensity of individual TMRM stained wild type N2 worms post-24 hours treatment with AIC106 and DMSO-control. [N=3 independent experiments (mean±SD). ****p<0.0001, by unpaired t-test]. Panel B) TMRM stained wild type N2 worms were monitored by fluorescence microscopy. Panel C) Mitophagy flux upon AIC106 treatment was determined in DLM14 young adult worms (TOMM-7 tagged to a peptide linked dual-Fluorescent GFP) by quantifying relative fold changes in ratio of monomeric-fluorescent protein (mFP) to dual-fluorescent protein (dFP) compared to DMSO-control. Panel D) Ability of AIC106 to rescue mitochondrial toxin (FCCP) sensitivity was determined as percent survival of 24 hours treated AIC106 and DMSO-control wild type N2 worms. [N=3 independent experiments (mean±SD). ****p<0.0001, by two-way ANOVA with Sidak's multiple comparisons test]. Panel E) Ability of AIC106 to rescue enhanced mitochondrial toxin (FCCP, 20 μM) sensitivity in mitophagy deficient parkin/pdr-1 mutant was determined as percent survival of 24 hours treated AIC106 and DMSO-control pdr-1(tm598) and pdr-1(tm598); hlh-30(tm1978) mutant. […] Panel F) Effect of AIC106 on mitochondrial biogenesis was determined by quantifying GFP fluorescence intensity in an individual SJ4143 worm (GFP targeted in mitochondria of intestinal cells) post-72 hours of treatment with AIC106 and DMSO-control. […] Panel G) SJ4143 worms were monitored by fluorescence microscopy. Panel H) Effects of AIC106 on basal (B) and maximum (M) mitochondrial respiration rate were determined by quantifying oxygen consumption rate (OCR) in wild type N2 and hlh-30(tm1978) mutant strain post-24 hours of treatment with AIC106 and DMSO-control. […]
FIG. 22, panels A-H: AIC106-induced HLH-30 expression is mediated by the nuclear hormone receptor DAF-12. […] Panel F) Protection against mitochondrial toxin (FCCP) was determined by quantifying survival of young adult worms treated 24 hours with DFA or DMSO-control. […]

Structure (SMILES) | HLH-30:GFP protein by immunoblot (HLH-30; 24 hours) | resistance to mitochondrial toxin FCCP (survival) (C. elegans) | activity and expression of HLH-30 (HLH-30; Example 1 (FIG. 9)) | HLH-30 expression (GFP intensity) (HLH-30; GFP-tagged HLH-30 strain MAH235, 24 hours) | HLH-30 expression (hlh-30 mRNA) (HLH-30; daf-12(rh61rh411) null mutant) | mRNA levels of HLH-30 target genes (HLH-30; wild type N2 worms, 24 hours) | FCCP sensitivity of pdr-1 mutant (C. elegans; pdr-1(tm598), FCCP 20 μM, hlh-30 dependent)
Cc1cccc(C)c1OCc1cc(C(=O)N2CCC(c3ccncc3)CC2)no1 [DFA, dafadine-A, reference compound] | significant increase in HLH-30 expression | protected against mitochondrial toxin FCCP | – | – | – | – | –
O=c1oc2c3c4c(cc2c2c1CCC2)CCCN4CCC3 [C1, 2,3,6,7,10,11-Hexahydro-1H,5H-cyclopenta(3,4)(1)benzopyrano(6,7,8-ij)quinolizin-12(9H)-one] | increase in HLH-30:GFP protein | more resistant to mitochondrial uncoupler FCCP | induction of activity and expression of the worm TFEB homologue HLH-30 | induces HLH-30 expression in worms | failed to induce HLH-30 expression | mRNA levels of several HLH-30 target genes were also increased | significantly rescue enhanced mitochondrial sensitivity of pdr-1 mutant
